Measured values as given in PubChem BioAssay (NCI).
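96-well plates; 48 h exposure; 5 concentrations. Endpoints by linear interpolation between flanking doses. Not reached: highest tested concentration assigned. GI50 = concentration required for 50% inhibition of growth. TGI: total growth inhibition.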

test system: UACC-257 melanoma; assay: growth of human tumour cells (NCI), 48 h

| Compound | GI50 | TGI |
| --- | --- | --- |
| BrCc1ccc(CBr)cc1 | 14 µM | 38.9 µM |
| Cc1cccc(NC(=O)c2sc3nc4c(cc3c2N)CN(Cc2ccccc2)CC4)c1C | > 50 µM | > 50 µM |
| CC1=CC(=O)C(O)C2(C)C1CC(O)C13COC4(C)C(OC(=O)C41)C(O)C23 (stereo not given) | 9.57 µM | 38.8 µM |

test system: OVCAR-4 ovarian; assay: growth of human tumour cells (NCI), 48 h

| Compound | GI50 | TGI |
| --- | --- | --- |
| O=C(Oc1cccnc1)c1ccsc1Nc1ccnc(C(F)(F)F)c1 | 5.21 µM | > 100 µM |
| BrCc1ccc(CBr)cc1 | 8.96 µM | 22.4 µM |
| Cc1cccc(NC(=O)c2sc3nc4c(cc3c2N)CN(Cc2ccccc2)CC4)c1C | 0.971 µM | 39 µM |
| CC1=CC(=O)C(O)C2(C)C1CC(O)C13COC4(C)C(OC(=O)C41)C(O)C23 (stereo not given) | 15 µM | > 100 µM |

test system: UO-31 renal; assay: growth of human tumour cells (NCI), 48 h

| Compound | GI50 | TGI |
| --- | --- | --- |
| O=C(Oc1cccnc1)c1ccsc1Nc1ccnc(C(F)(F)F)c1 | 20.8 µM | > 100 µM |
| BrCc1ccc(CBr)cc1 | 7.58 µM | > 63.2 µM |
| Cc1cccc(NC(=O)c2sc3nc4c(cc3c2N)CN(Cc2ccccc2)CC4)c1C | 0.917 µM | > 50 µM |
| CC1=CC(=O)C(O)C2(C)C1CC(O)C13COC4(C)C(OC(=O)C41)C(O)C23 (stereo not given) | 10.7 µM | 42.7 µM |

test system: SK-MEL-28 melanoma; assay: growth of human tumour cells (NCI), 48 h

| Compound | GI50 | TGI |
| --- | --- | --- |
| O=C(Oc1cccnc1)c1ccsc1Nc1ccnc(C(F)(F)F)c1 | 6.28 µM | 39.9 µM |
| BrCc1ccc(CBr)cc1 | 8.29 µM | 23.3 µM |
| Cc1cccc(NC(=O)c2sc3nc4c(cc3c2N)CN(Cc2ccccc2)CC4)c1C | 4.06 µM | > 50 µM |
| CC1=CC(=O)C(O)C2(C)C1CC(O)C13COC4(C)C(OC(=O)C41)C(O)C23 (stereo not given) | 7.32 µM | > 100 µM |

test system: HOP-92 NSCLC; assay: growth of human tumour cells (NCI), 48 h

| Compound | GI50 | TGI |
| --- | --- | --- |
| O=C(Oc1cccnc1)c1ccsc1Nc1ccnc(C(F)(F)F)c1 | 3.14 µM | 46.5 µM |
| BrCc1ccc(CBr)cc1 | 18.7 µM | 53.7 µM |
| Cc1cccc(NC(=O)c2sc3nc4c(cc3c2N)CN(Cc2ccccc2)CC4)c1C | 0.736 µM | 47.3 µM |

test system: SR leukemia; assay: growth of human tumour cells (NCI), 48 h

| Compound | GI50 | TGI |
| --- | --- | --- |
| O=C(Oc1cccnc1)c1ccsc1Nc1ccnc(C(F)(F)F)c1 | 3.74 µM | 47.1 µM |
| BrCc1ccc(CBr)cc1 | > 100 µM | > 100 µM |
| Cc1cccc(NC(=O)c2sc3nc4c(cc3c2N)CN(Cc2ccccc2)CC4)c1C | 0.0941 µM | > 50 µM |
| CC1=CC(=O)C(O)C2(C)C1CC(O)C13COC4(C)C(OC(=O)C41)C(O)C23 (stereo not given) | 0.688 µM | 6.46 µM |

test system: SF-539 CNS; assay: growth of human tumour cells (NCI), 48 h

| Compound | GI50 | TGI |
| --- | --- | --- |
| BrCc1ccc(CBr)cc1 | 3.02 µM | 11.8 µM |
| Cc1cccc(NC(=O)c2sc3nc4c(cc3c2N)CN(Cc2ccccc2)CC4)c1C | 0.165 µM | 28.2 µM |
| CC1=CC(=O)C(O)C2(C)C1CC(O)C13COC4(C)C(OC(=O)C41)C(O)C23 (stereo not given) | 8.13 µM | 35.5 µM |

test system: HOP-62 NSCLC; assay: growth of human tumour cells (NCI), 48 h

| Compound | GI50 | TGI |
| --- | --- | --- |
| O=C(Oc1cccnc1)c1ccsc1Nc1ccnc(C(F)(F)F)c1 | 25 µM | > 100 µM |
| BrCc1ccc(CBr)cc1 | 4.23 µM | 9.68 µM |
| Cc1cccc(NC(=O)c2sc3nc4c(cc3c2N)CN(Cc2ccccc2)CC4)c1C | 0.261 µM | > 50 µM |
| CC1=CC(=O)C(O)C2(C)C1CC(O)C13COC4(C)C(OC(=O)C41)C(O)C23 (stereo not given) | 6.12 µM | 36.6 µM |

test system: 786-0 renal; assay: growth of human tumour cells (NCI), 48 h

| Compound | GI50 | TGI |
| --- | --- | --- |
| O=C(Oc1cccnc1)c1ccsc1Nc1ccnc(C(F)(F)F)c1 | 53 µM | > 100 µM |
| BrCc1ccc(CBr)cc1 | 2.59 µM | 8.63 µM |
| Cc1cccc(NC(=O)c2sc3nc4c(cc3c2N)CN(Cc2ccccc2)CC4)c1C | 0.197 µM | 28.5 µM |
| CC1=CC(=O)C(O)C2(C)C1CC(O)C13COC4(C)C(OC(=O)C41)C(O)C23 (stereo not given) | 5.13 µM | 27.4 µM |

test system: U251 CNS; assay: growth of human tumour cells (NCI), 48 h

| Compound | GI50 | TGI |
| --- | --- | --- |
| O=C(Oc1cccnc1)c1ccsc1Nc1ccnc(C(F)(F)F)c1 | 3.91 µM | 18.7 µM |
| BrCc1ccc(CBr)cc1 | 6.25 µM | > 100 µM |
| Cc1cccc(NC(=O)c2sc3nc4c(cc3c2N)CN(Cc2ccccc2)CC4)c1C | 0.251 µM | > 50 µM |
| CC1=CC(=O)C(O)C2(C)C1CC(O)C13COC4(C)C(OC(=O)C41)C(O)C23 (stereo not given) | 6.1 µM | 31.6 µM |

test system: MALME-3M melanoma; assay: growth of human tumour cells (NCI), 48 h

| Compound | GI50 | TGI |
| --- | --- | --- |
| O=C(Oc1cccnc1)c1ccsc1Nc1ccnc(C(F)(F)F)c1 | 45.6 µM | > 100 µM |
| BrCc1ccc(CBr)cc1 | 4.56 µM | 12.5 µM |
| Cc1cccc(NC(=O)c2sc3nc4c(cc3c2N)CN(Cc2ccccc2)CC4)c1C | 0.239 µM | > 50 µM |
| CC1=CC(=O)C(O)C2(C)C1CC(O)C13COC4(C)C(OC(=O)C41)C(O)C23 (stereo not given) | 10.1 µM | 37.4 µM |

test system: SF-268 CNS; assay: growth of human tumour cells (NCI), 48 h

| Compound | GI50 | TGI |
| --- | --- | --- |
| O=C(Oc1cccnc1)c1ccsc1Nc1ccnc(C(F)(F)F)c1 | 4.54 µM | > 100 µM |
| BrCc1ccc(CBr)cc1 | 5.82 µM | 18 µM |
| Cc1cccc(NC(=O)c2sc3nc4c(cc3c2N)CN(Cc2ccccc2)CC4)c1C | 0.387 µM | > 50 µM |
| CC1=CC(=O)C(O)C2(C)C1CC(O)C13COC4(C)C(OC(=O)C41)C(O)C23 (stereo not given) | 12.6 µM | 52.5 µM |

test system: ACHN renal; assay: growth of human tumour cells (NCI), 48 h

| Compound | GI50 | TGI |
| --- | --- | --- |
| O=C(Oc1cccnc1)c1ccsc1Nc1ccnc(C(F)(F)F)c1 | 17.7 µM | 95.8 µM |
| BrCc1ccc(CBr)cc1 | 1.94 µM | 6.78 µM |
| Cc1cccc(NC(=O)c2sc3nc4c(cc3c2N)CN(Cc2ccccc2)CC4)c1C | 0.409 µM | > 50 µM |
| CC1=CC(=O)C(O)C2(C)C1CC(O)C13COC4(C)C(OC(=O)C41)C(O)C23 (stereo not given) | 4.75 µM | 20.3 µM |

test system: A549 NSCLC; assay: growth of human tumour cells (NCI), 48 h

| Compound | GI50 | TGI |
| --- | --- | --- |
| O=C(Oc1cccnc1)c1ccsc1Nc1ccnc(C(F)(F)F)c1 | 7.68 µM | > 100 µM |
| BrCc1ccc(CBr)cc1 | 21.7 µM | 76.8 µM |
| Cc1cccc(NC(=O)c2sc3nc4c(cc3c2N)CN(Cc2ccccc2)CC4)c1C | 0.381 µM | > 50 µM |
| CC1=CC(=O)C(O)C2(C)C1CC(O)C13COC4(C)C(OC(=O)C41)C(O)C23 (stereo not given) | 5.49 µM | 34 µM |

test system: SNB-75 CNS; assay: growth of human tumour cells (NCI), 48 h

| Compound | GI50 | TGI |
| --- | --- | --- |
| O=C(Oc1cccnc1)c1ccsc1Nc1ccnc(C(F)(F)F)c1 | 25.2 µM | > 100 µM |
| BrCc1ccc(CBr)cc1 | 18.8 µM | > 100 µM |
